From paper PMC7053747 (PLoS ONE, 2020)
Like-named read-outs stand apart in the source and are kept apart here.

What was measured:
kappa opioid receptor = kappa opioid receptor (Homo sapiens, UniProt P41145); assay: biochemical; assay type: binding
[1] = molecular target: T1, adrenergic alpha2A receptor (Homo sapiens, UniProt P08913); assay: biochemical; assay type: binding
T1 sequence (P08913 1-465): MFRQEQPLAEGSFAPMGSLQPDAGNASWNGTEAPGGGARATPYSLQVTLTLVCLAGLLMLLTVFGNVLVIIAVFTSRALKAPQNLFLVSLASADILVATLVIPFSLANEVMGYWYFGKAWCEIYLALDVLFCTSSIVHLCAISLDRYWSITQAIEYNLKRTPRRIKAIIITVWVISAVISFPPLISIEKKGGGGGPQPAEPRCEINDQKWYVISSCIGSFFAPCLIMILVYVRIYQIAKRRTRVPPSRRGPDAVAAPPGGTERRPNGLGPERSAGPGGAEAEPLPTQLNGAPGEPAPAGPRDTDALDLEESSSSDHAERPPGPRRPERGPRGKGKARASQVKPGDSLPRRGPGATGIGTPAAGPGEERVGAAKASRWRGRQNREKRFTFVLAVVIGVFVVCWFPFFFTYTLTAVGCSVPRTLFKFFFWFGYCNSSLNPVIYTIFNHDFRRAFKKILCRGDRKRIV

[2] = molecular target: T2, adrenergic alpha2C receptor (Homo sapiens, UniProt P18825); assay: biochemical; assay type: binding
T2 sequence (P18825 1-462): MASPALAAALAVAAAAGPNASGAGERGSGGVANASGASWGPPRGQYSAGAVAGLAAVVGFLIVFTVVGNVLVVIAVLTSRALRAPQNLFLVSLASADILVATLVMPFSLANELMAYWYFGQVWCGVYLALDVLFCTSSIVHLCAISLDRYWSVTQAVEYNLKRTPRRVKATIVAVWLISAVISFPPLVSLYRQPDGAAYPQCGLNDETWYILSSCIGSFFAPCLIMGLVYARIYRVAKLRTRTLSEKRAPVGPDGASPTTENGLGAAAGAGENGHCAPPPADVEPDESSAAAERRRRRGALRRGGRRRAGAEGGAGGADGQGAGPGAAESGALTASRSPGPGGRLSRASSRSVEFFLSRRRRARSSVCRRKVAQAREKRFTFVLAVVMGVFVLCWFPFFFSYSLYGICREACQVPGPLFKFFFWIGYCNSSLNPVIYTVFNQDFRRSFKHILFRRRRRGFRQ

serotonin 5HT2A receptor = molecular target: T3, serotonin 5HT2A receptor (Homo sapiens, UniProt P28223); assay: biochemical; assay type: binding
T3 construct: host or cells: transient HEKT cells (ATCC CRL-11268)

serotonin 5HT1A receptor = molecular target: T4, serotonin 5HT1A receptor (Homo sapiens, UniProt P08908); assay: biochemical; assay type: binding
T4 sequence (P08908 1-422): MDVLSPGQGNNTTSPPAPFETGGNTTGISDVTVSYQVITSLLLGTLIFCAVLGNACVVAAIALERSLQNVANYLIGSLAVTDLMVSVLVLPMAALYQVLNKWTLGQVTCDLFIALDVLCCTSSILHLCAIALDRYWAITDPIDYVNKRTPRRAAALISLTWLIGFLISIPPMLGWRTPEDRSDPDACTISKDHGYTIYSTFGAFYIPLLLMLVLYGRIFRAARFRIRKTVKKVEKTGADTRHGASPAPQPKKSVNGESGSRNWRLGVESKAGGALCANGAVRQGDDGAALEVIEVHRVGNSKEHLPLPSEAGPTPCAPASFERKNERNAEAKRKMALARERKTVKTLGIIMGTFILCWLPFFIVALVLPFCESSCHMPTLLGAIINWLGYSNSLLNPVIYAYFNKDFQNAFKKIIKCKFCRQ

delta opioid receptor = delta opioid receptor (Homo sapiens, UniProt P41143); assay: biochemical; assay type: binding
[3] = molecular target: T5, adrenergic alpha2B receptor (Homo sapiens, UniProt P18089); assay: biochemical; assay type: binding
T5 construct: host or cells: transient HEKT cells
T5 sequence (P18089 1-450): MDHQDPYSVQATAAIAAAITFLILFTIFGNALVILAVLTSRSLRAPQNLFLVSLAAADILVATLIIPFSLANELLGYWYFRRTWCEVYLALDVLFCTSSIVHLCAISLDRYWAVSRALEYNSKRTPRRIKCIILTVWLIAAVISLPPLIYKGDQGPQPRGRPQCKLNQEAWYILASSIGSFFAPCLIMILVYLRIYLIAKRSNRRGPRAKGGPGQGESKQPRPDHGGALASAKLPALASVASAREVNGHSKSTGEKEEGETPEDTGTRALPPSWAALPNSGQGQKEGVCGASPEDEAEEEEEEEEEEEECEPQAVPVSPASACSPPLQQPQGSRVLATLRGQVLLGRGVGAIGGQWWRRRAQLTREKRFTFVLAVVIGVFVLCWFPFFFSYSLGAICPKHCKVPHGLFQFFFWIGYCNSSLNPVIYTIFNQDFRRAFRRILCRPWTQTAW

mouse opioid receptor = settings: read-out: binding affinity; cited from earlier work
[4] = molecular target: rodent kappa opioid receptor; settings: read-out: binding affinity; cited from earlier work
[5] = molecular target: human kappa opioid receptor; settings: read-out: binding affinity; cited from earlier work
[6] = system: rodent mu opioid receptors; settings: cited from earlier work
human mu opioid receptor [7] = settings: read-out: binding affinity; cited from earlier work
human mu opioid receptor [8] = settings: cited from earlier work
[9] = molecular target: rodent delta opioid receptor; settings: read-out: binding affinity; cited from earlier work
[10] = molecular target: rodent mu opioid receptor; settings: read-out: binding affinity; cited from earlier work
[11] = molecular target: human delta opioid receptor; settings: read-out: binding affinity; cited from earlier work
mu opioid receptor [12] = molecular target: mu opioid receptor (Homo sapiens, UniProt P35372); assay: biochemical; assay type: binding
mu opioid receptor [13] = settings: cited from earlier work

Chain of mu opioid receptor (Homo sapiens, UniProt P35372) (P35372 whole entry): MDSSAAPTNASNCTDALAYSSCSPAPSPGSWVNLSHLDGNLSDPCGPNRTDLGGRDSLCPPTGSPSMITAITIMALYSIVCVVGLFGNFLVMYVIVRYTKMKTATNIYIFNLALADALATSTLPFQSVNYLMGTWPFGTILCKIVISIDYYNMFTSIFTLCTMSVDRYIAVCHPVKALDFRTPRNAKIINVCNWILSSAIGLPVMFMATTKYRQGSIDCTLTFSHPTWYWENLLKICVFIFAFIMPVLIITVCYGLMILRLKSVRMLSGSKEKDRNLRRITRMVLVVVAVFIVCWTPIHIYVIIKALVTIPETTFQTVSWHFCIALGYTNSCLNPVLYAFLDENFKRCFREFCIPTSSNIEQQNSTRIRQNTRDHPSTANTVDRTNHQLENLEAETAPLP
Chain of kappa opioid receptor (P41145 whole entry): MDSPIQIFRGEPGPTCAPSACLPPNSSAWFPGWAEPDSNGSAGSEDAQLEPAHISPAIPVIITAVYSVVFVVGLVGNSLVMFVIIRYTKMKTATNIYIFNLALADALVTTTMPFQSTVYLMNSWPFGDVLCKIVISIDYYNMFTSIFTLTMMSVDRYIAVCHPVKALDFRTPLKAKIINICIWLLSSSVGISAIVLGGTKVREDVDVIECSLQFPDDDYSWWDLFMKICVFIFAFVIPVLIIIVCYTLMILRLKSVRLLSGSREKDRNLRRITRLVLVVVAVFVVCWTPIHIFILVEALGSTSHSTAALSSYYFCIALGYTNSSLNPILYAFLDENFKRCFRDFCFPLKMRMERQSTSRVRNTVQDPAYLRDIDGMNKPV
Chain of delta opioid receptor (P41143 whole entry): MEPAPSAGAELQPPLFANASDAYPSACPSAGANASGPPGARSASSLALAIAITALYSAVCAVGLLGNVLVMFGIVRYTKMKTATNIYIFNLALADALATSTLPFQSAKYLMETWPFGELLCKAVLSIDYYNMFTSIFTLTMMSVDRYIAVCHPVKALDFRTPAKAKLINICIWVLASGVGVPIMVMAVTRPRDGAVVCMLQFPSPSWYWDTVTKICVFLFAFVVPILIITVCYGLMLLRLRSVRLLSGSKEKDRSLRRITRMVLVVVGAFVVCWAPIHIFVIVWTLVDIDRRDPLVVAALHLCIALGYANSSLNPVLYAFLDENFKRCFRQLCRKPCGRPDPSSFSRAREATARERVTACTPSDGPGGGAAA
T3 sequence (P28223 whole entry): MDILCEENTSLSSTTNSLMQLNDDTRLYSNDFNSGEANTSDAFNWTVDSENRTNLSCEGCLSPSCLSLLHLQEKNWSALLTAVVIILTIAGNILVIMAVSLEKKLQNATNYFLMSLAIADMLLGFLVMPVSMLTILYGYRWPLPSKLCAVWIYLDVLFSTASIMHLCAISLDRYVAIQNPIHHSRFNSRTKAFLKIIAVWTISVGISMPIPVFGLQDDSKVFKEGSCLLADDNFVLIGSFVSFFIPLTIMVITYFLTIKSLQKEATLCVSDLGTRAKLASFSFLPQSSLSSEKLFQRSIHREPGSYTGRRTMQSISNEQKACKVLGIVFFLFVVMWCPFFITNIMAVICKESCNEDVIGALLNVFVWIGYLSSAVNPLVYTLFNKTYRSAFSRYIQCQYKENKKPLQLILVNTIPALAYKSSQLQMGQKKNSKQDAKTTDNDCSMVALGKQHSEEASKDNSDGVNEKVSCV

Compound | Ki (kappa opioid receptor) | Ki [1] | Ki [2] | Ki (serotonin 5HT2A receptor) | Ki (mu opioid receptor [12]) | Ki (serotonin 5HT1A receptor) | Ki (delta opioid receptor) | Ki [3] | further results
CC[C@H]1CN2CCc3c([nH]c4cccc(OC)c34)[C@@H]2C[C@@H]1/C(=C\OC)C(=O)OC [Compound 2, Speciogynine] |  |  |  |  |  |  |  |  | Ki (kappa opioid receptor; read-out: Ki): 3.6 µM; Ki ([1]; read-out: Ki): 0.36 µM; Ki ([2]; read-out: Ki): 0.68 µM; Ki (serotonin 5HT2A receptor; read-out: Ki): 2.9 µM; Ki (serotonin 5HT1A receptor; read-out: Ki): 0.54 µM; Ki (delta opioid receptor; read-out: Ki): > 10 µM; Ki ([3]; read-out: Ki): 2.6 µM; Ki (mouse opioid receptor): < 10 µM
C=C[C@H]1CN2CCc3c([nH]c4cccc(OC)c34)[C@@H]2C[C@@H]1/C(=C\OC)C(=O)OC [Compound 5, Paynantheine] |  |  |  |  |  |  |  |  | Ki [4]: 0.89 ± 0.3 µM; Ki [5]: 2.6 ± 0.4 µM; functional activity (BRET) [6]: no agonist or antagonist activity; Ki (human mu opioid receptor [7]): 0.41 ± 0.2 µM; functional activity (BRET) (human mu opioid receptor [8]): antagonist; Ki [9]: 4.3 ± 0.7 µM; Ki [10]: 0.67 ± 0.08 µM; Ki [11]: > 10 µM
CC[C@@H]1CN2CC[C@@]3(O)C(=Nc4cccc(OC)c43)[C@@H]2C[C@@H]1/C(=C\OC)C(=O)OC [Compound 7, 7-Hydroxymitragynine] |  |  |  |  |  |  |  |  | Ki (kappa opioid receptor; read-out: Ki): 0.32 µM; Ki ([1]; read-out: Ki): > 10 µM; Ki ([2]; read-out: Ki): > 10 µM; Ki (serotonin 5HT2A receptor; read-out: Ki): > 10 µM; Ki (serotonin 5HT1A receptor; read-out: Ki): > 10 µM; Ki (delta opioid receptor; read-out: Ki): 0.47 µM; Ki ([3]; read-out: Ki): > 10 µM
COC(=O)C1=CO[C@@H](C)C2CN3CCc4c([nH]c5ccccc45)[C@@H]3C[C@H]12 (some centres unmarked) [Compound 11, Ajmalicine] | > 10 µM | 0.045 µM | 0.065 µM | > 10 µM | 8.96 µM | 0.42 µM | > 10 µM |  | 
COC(=O)C1=CO[C@@H](C)[C@@H]2CN3CCc4c([nH]c5ccccc45)[C@@H]3C[C@H]12 [Compound 12, Tetrahydroalstonine] | > 10 µM | 0.018 µM | 0.053 µM | 2.6 µM | > 10 µM | 0.38 µM | > 10 µM | 0.04 µM | 
CC[C@@H]1CN2CC[C@]3(C(=O)Nc4ccccc43)[C@@H]2C[C@@H]1/C(=C\OC)C(=O)OC [Compound 14, Corynoxine B] | > 10 µM | > 10 µM | > 10 µM | > 10 µM | 1.6 µM | > 10 µM | 7.6 µM | > 10 µM | 
CC[C@H]1CN2CC[C@@]3(C(=O)Nc4ccccc43)[C@@H]2C[C@@H]1/C(=C\OC)C(=O)OC [Compound 16, Isorhynchophylline] | > 10 µM | 4.8 µM | > 10 µM | > 10 µM |  | > 10 µM | 6.4 µM | > 10 µM | 
C=C[C@H]1CN2CC[C@]3(C(=O)Nc4ccccc43)[C@@H]2C[C@@H]1/C(=C\OC)C(=O)OC [Compound 20, Corynoxeine] | > 10 µM | > 10 µM | > 10 µM | > 10 µM | > 10 µM | > 10 µM | > 10 µM | 8.4 µM | 
C=C[C@H]1CN2CC[C@@]3(C(=O)Nc4ccccc43)[C@@H]2C[C@@H]1/C(=C\OC)C(=O)OC [Compound 21, Isocorynoxeine] | > 10 µM | > 10 µM | > 10 µM | > 10 µM | > 10 µM | > 10 µM | > 10 µM | > 10 µM | 
CCOC(=O)C1(c2ccccc2)CCN(CCC(C#N)(c2ccccc2)c2ccccc2)CC1 [diphenoxylate] |  |  |  |  |  |  |  |  | Ki (mu opioid receptor [13]): 0.0124 µM
CCC(=O)O[C@](Cc1ccccc1)(c1ccccc1)[C@H](C)CN(C)C [propoxyphene] |  |  |  |  |  |  |  |  | Ki (mu opioid receptor [13]): 0.12 µM
Mitragynine [Compound 1] |  |  |  |  |  |  |  |  | Ki (kappa opioid receptor; read-out: Ki): 1.3 µM; Ki ([1]; read-out: Ki): 2.3 µM; functional activity (BRET) [6]: competitive antagonist; functional activity (BRET) (human mu opioid receptor [8]): partial agonist; Ki ([2]; read-out: Ki): 3.5 µM; Ki (serotonin 5HT2A receptor; read-out: Ki): 7.3 µM; Ki (serotonin 5HT1A receptor; read-out: Ki): 5.8 µM; Ki (delta opioid receptor; read-out: Ki): 6.5 µM; Ki ([3]; read-out: Ki): 4.9 µM
